Data: the supplement of paper PMC10307832

Assays:
Test in all cases: relative viability (nuclei count vs DMSO), 5 days (fraction); higher = more cells survive
HCC-827 = system: HCC-827
Outline: (§1)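 Values are medians from duplicate plates. Each reflects relative viability, defined as the nuclei count of treated wells over that of vehicle wells. Lung cancer cell lines in 1536-well plates were pin-tool dosed one day after seeding with one drug alone or with a fixed anchor-drug dose plus five library-drug doses (not always all listed) in √10 steps, then fixed, stained and imaged at 4× after 5 days.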

NCI-H2342 = system: NCI-H2342
Outline: as §1

EKVX = system: EKVX
Outline: as §1

NCI-H1734 = system: NCI-H1734
Outline: as §1

NCI-H1975 = system: NCI-H1975
Outline: as §1

LCLC-97TM1 = system: LCLC-97TM1
Outline: as §1

NCI-H1355 = system: NCI-H1355
Outline: as §1

PC-14 = system: PC-14
Outline: as §1

NCI-H1650 = system: NCI-H1650
Outline: as §1

NCI-H1563 = system: NCI-H1563
Outline: as §1

PC-3 [JPC-3] = system: PC-3 [JPC-3]
Outline: as §1

For `CCN(CC)CCCCNc1ncc2cc(-c3cc(OC)cc(OC)c3)c(NC(=O)NC(C)(C)C)nc2n1` + Cc1nc(Nc2ncc(C(=O)Nc3c(C)cccc3Cl)s2)cc(N2CCN(CCO)CC2)n1 [Dasatinib] (partner 0.075 µM), the relative viability (HCC-827; first compound 0.01 µM) was 0.338, the relative viability (HCC-827; first compound 0.03162 µM) was 0.245 and the relative viability (HCC-827; first compound 0.1 µM) was 0.352. It also gave a relative viability (HCC-827; first compound 0.3162 µM) of 0.335, a relative viability (HCC-827; first compound 1 µM) of 0.299 and a relative viability (NCI-H2342; first compound 0.01 µM) of 0.296. For the same compound, the relative viability (NCI-H2342; first compound 0.03162 µM) was 0.345, the relative viability (NCI-H2342; first compound 0.1 µM) was 0.321 and the relative viability (NCI-H2342; first compound 0.3162 µM) was 0.332. For the same compound, the relative viability (NCI-H2342; first compound 1 µM) was 0.31, the relative viability (EKVX; first compound 0.01 µM) was 0.547 and the relative viability (EKVX; first compound 0.03162 µM) was 0.604. The relative viability (EKVX; first compound 0.1 µM) was 0.57, the relative viability (EKVX; first compound 0.3162 µM) was 0.563 and the relative viability (EKVX; first compound 1 µM) was 0.349. It also gave a relative viability (NCI-H1734; first compound 0.01 µM) of 0.508, a relative viability (NCI-H1734; first compound 0.03162 µM) of 0.507 and a relative viability (NCI-H1734; first compound 0.1 µM) of 0.521. It also gave a relative viability (NCI-H1734; first compound 0.3162 µM) of 0.543, a relative viability (NCI-H1734; first compound 1 µM) of 0.436 and a relative viability (NCI-H1975; first compound 0.01 µM) of 0.369. It also gave a relative viability (NCI-H1975; first compound 0.03162 µM) of 0.403, a relative viability (NCI-H1975; first compound 0.1 µM) of 0.458 and a relative viability (NCI-H1975; first compound 0.3162 µM) of 0.452. The relative viability (NCI-H1975; first compound 1 µM) was 0.313, the relative viability (LCLC-97TM1; first compound 0.01 µM) was 0.806 and the relative viability (LCLC-97TM1; first compound 0.03162 µM) was 0.877. It also gave a relative viability (LCLC-97TM1; first compound 0.1 µM) of 0.93, a relative viability (LCLC-97TM1; first compound 0.3162 µM) of 0.934 and a relative viability (LCLC-97TM1; first compound 1 µM) of 0.838. The relative viability (NCI-H1355; first compound 0.01 µM) was 0.775, the relative viability (NCI-H1355; first compound 0.03162 µM) was 0.751 and the relative viability (NCI-H1355; first compound 0.1 µM) was 0.746. The relative viability (NCI-H1355; first compound 0.3162 µM) was 0.775, the relative viability (NCI-H1355; first compound 1 µM) was 0.663 and the relative viability (PC-14; first compound 0.01 µM) was 0.263. The relative viability (PC-14; first compound 0.03162 µM) was 0.268, the relative viability (PC-14; first compound 0.1 µM) was 0.276 and the relative viability (PC-14; first compound 0.3162 µM) was 0.264. The relative viability (PC-14; first compound 1 µM) was 0.162, the relative viability (NCI-H1650; first compound 0.01 µM) was 0.319 and the relative viability (NCI-H1650; first compound 0.03162 µM) was 0.286. The relative viability (NCI-H1650; first compound 0.1 µM) was 0.375, the relative viability (NCI-H1650; first compound 0.3162 µM) was 0.21 and the relative viability (NCI-H1650; first compound 1 µM) was 0.191. For the same compound, the relative viability (NCI-H1563; first compound 0.01 µM) was 0.477, the relative viability (NCI-H1563; first compound 0.03162 µM) was 0.412 and the relative viability (NCI-H1563; first compound 0.1 µM) was 0.474. For the same compound, the relative viability (NCI-H1563; first compound 0.3162 µM) was 0.478, the relative viability (NCI-H1563; first compound 1 µM) was 0.503 and the relative viability (PC-3 [JPC-3]; first compound 0.01 µM) was 1.05. For the same compound, the relative viability (PC-3 [JPC-3]; first compound 0.03162 µM) was 1.07, the relative viability (PC-3 [JPC-3]; first compound 0.1 µM) was 1.06 and the relative viability (PC-3 [JPC-3]; first compound 0.3162 µM) was 1.08. For the same compound, the relative viability (PC-3 [JPC-3]; first compound 1 µM) was 0.909.
